Experimental data from patent publication US4369188A, “2-Thioxobenz[cd]indole-1(2H)-acetic acid derivatives” (Ayerst, McKenna & Harrison Inc., priority 1981, dated 1983).

Tested on: dulcitol accumulation in the lens
Assay: galactosemic rats: decrease of dulcitol accumulation in the lens
Format: in vivo, rat (Sprague-Dawley)
Details: 128 mg/kg/day in galactose diet, 4 days, vs controls
Excerpt: The aldose reductase inhibiting property of a compound of formula I and its utilization in diminishing and alleviating diabetic complications also are demonstrable in experiments using galactosemic rats, see D. Dvornik et al., Science, 182, 1146 (1973). Such experiments are exemplified hereinbelow after the listing of the following general comments pertaining to these experiments:
(a) Four or more groups of six male rats, 50-70 g, Sprague-Dawley strain, were used. The first group, the control group, was fed a mixture of laboratory chow (rodent laboratory chow, Purina) and glucose at 20% (w/w %) concentration. The untreated galactosemic group was fed a similar diet in which galactose is substituted for glucose. The other groups were fed diets containing various amounts of the compound of formula I in the galacetose containing diet. The concentration of galactose in the diet of the treated groups was the same as that for the untreated galactosemic group.
(b) After four days, the animals were killed by decapitation. The eyeballs were removed and punctured with a razor blade; the freed lenses were rolled gently on filter paper and weighed. The sciatic nerves were dissected as completely as possible and weighed. Both tissues were frozen and kept up to two weeks before being analyzed for dulcitol.
(c) The tissues were homoginized in 5% (w/v) trichloroacetic acid and the polyol determination on the extracts were performed by a modification of the procedure of M. Kraml and L. Cosyns, Clin. Biochem., 2, 373 (1969). Only two minor reagent changes were made: (a) The rinsing mixture was an aqueous 5% (w/v) trichloroacetic acid solution and (b) the stock solution was prepared by dissolving 25 mg of dulcitol in 100 ml of an aqueous trichloroacetic acid solution. [N.B.: For each experiment the average value found in the tissued from rats fed the glucose diet was subtracted from the individual values found in the corresponding rat tissue to obtain the amount of polyol accumulated].
The results obtained are exemplified in Table 2, wherein the values under L and N respectively, represent the percentage decreases of dulcitol accumulation in the tissues of the lens, and sciatic nerve for treated rats as compared to controls.

Compound	percentage decrease of dulcitol accumulation in lens (L) [%]
O=C(O)CN1C(=S)c2cccc3c(Cl)cc(Cl)c1c23 [6,8-dichloro-2-thioxo-benz[cd]indole-1(2H)-acetic acid]	18

Same assay, conditions: 131 mg/kg/day in galactose diet, 4 days, vs controls

Compound	percentage decrease of dulcitol accumulation in lens (L) [%]
O=C(O)CN1C(=S)c2cccc3c(Br)cc(Br)c1c23 [6,8-dibromo-2-thioxo-benz[cd]indole-1(2H)-acetic acid]	9
O=C(O)CN1C(=S)c2cccc3c(Br)ccc1c23 [6-Bromo-2-thioxo-benz[cd]indole-1(2H)-acetic Acid]	27

Same assay, conditions: 134 mg/kg/day in galactose diet, 4 days, vs controls

Compound	percentage decrease of dulcitol accumulation in lens (L) [%]
O=C(O)CN1C(=S)c2cccc3c(Cl)ccc1c23 [6-chloro-2-thioxo-benz[cd]indole-1(2H)-acetic acid]	27

Same assay, conditions: 141 mg/kg/day in galactose diet, 4 days, vs controls

Compound	percentage decrease of dulcitol accumulation in lens (L) [%]
O=C(O)CN1C(=S)c2cccc3c(I)ccc1c23 [6-iodo-2-thioxo-benz[cd]indole-1(2H)-acetic acid]	32

Same assay, conditions: 144 mg/kg, 96 h

Compound	percentage decrease of dulcitol accumulation in lens (L) [%]
CN(C)CCCOC(=O)CN1C(=S)c2cccc3c(Cl)ccc1c23 [6-Chloro-2-thioxo-benz[cd]indole-1(2H)-acetic Acid, 3-Dimethylamino-1propylEster]	28

Same assay, conditions: 150 mg/kg/day in galactose diet, 4 days, vs controls

Compound	percentage decrease of dulcitol accumulation in lens (L) [%]
CCOC(=O)CN1C(=S)c2cccc3cccc1c23 [2-thioxo-benz[cd]indole-1(2H)-acetic acid, ethyl ester]	11

Same assay, conditions: 165 mg/kg/day in galactose diet, 4 days, vs controls

Compound	percentage decrease of dulcitol accumulation in lens (L) [%]
O=C(O)CN1C(=S)c2cccc3cccc1c23 [2-thioxo-benz[cd]indole-1(2H)-acetic acid]	18

Molecular target: T1, lens aldose reductase (Bos taurus, UniProt P16116)
T1 construct: the preparation of the enzyme from bovine lens; from tissue; host or cells: bovine lens
Assay: in vitro aldose reductase inhibition (modified Hayman and Kinoshita procedure)
Format: biochemical
Details: 10^-5 molar; enzyme from bovine lens; read-out: % Inhibition at Different Molar Concentrations (in vitro)
Excerpt: In the present case, the procedure of Hayman and Kinoshita is modified in that the final chromatography step is omitted in the preparation of the enzyme from bovine lens.
Table 1 gives the results of the compounds of formula I or an addition salt thereof when evaluated in the above in vitro test.

Compound	inhibition at 10 µM [%]
O=C(O)CN1C(=S)c2cccc3cccc1c23 [2-thioxo-benz[cd]indole-1(2H)-acetic acid]	93
O=C(O)CN1C(=S)c2cccc3c(Br)cc(Br)c1c23 [6,8-dibromo-2-thioxo-benz[cd]indole-1(2H)-acetic acid]	89
NCCOC(=O)CN1C(=S)c2cccc3cccc1c23 [2-Thioxo-benz[cd]indole-1(2H)-acetic Acid, 2-Amino-ethyl Ester]	83
CCOC(=O)CN1C(=S)c2cccc3cccc1c23 [2-thioxo-benz[cd]indole-1(2H)-acetic acid, ethyl ester]	66

Results, then the compound that gave them:

inhibition at 10 µM [%]	Compound
91	CN(C)CCCOC(=O)CN1C(=S)c2cccc3c(Cl)ccc1c23 [6-Chloro-2-thioxo-benz[cd]indole-1(2H)-acetic Acid, 3-Dimethylamino-1propylEster]
96	O=C(O)CN1C(=S)c2cccc3c(Cl)ccc1c23 [6-chloro-2-thioxo-benz[cd]indole-1(2H)-acetic acid]
94	O=C(O)CN1C(=S)c2cccc3c(F)ccc1c23 [6-fluoro-2-thioxo-benz[cd]indole-1(2H)-acetic acid]
94	O=C(O)CN1C(=S)c2cccc3c(Cl)cc(Cl)c1c23 [6,8-dichloro-2-thioxo-benz[cd]indole-1(2H)-acetic acid]
95	O=C(O)CN1C(=S)c2cccc3c(Br)ccc1c23 [6-Bromo-2-thioxo-benz[cd]indole-1(2H)-acetic Acid]
93	O=C(O)CN1C(=S)c2cccc3c(I)ccc1c23 [6-iodo-2-thioxo-benz[cd]indole-1(2H)-acetic acid]

Same assay, conditions: 10^-6 molar; enzyme from bovine lens; read-out: % Inhibition at Different Molar Concentrations (in vitro)

Compound	inhibition at 1 µM [%]
O=C(O)CN1C(=S)c2cccc3cccc1c23 [2-thioxo-benz[cd]indole-1(2H)-acetic acid]	87
O=C(O)CN1C(=S)c2cccc3c(Br)cc(Br)c1c23 [6,8-dibromo-2-thioxo-benz[cd]indole-1(2H)-acetic acid]	56
NCCOC(=O)CN1C(=S)c2cccc3cccc1c23 [2-Thioxo-benz[cd]indole-1(2H)-acetic Acid, 2-Amino-ethyl Ester]	29
CCOC(=O)CN1C(=S)c2cccc3cccc1c23 [2-thioxo-benz[cd]indole-1(2H)-acetic acid, ethyl ester]	11

Next, values leading:

inhibition at 1 µM [%]	Compound
70	CN(C)CCCOC(=O)CN1C(=S)c2cccc3c(Cl)ccc1c23 [6-Chloro-2-thioxo-benz[cd]indole-1(2H)-acetic Acid, 3-Dimethylamino-1propylEster]
91	O=C(O)CN1C(=S)c2cccc3c(Cl)ccc1c23 [6-chloro-2-thioxo-benz[cd]indole-1(2H)-acetic acid]
88	O=C(O)CN1C(=S)c2cccc3c(F)ccc1c23 [6-fluoro-2-thioxo-benz[cd]indole-1(2H)-acetic acid]
76	O=C(O)CN1C(=S)c2cccc3c(Cl)cc(Cl)c1c23 [6,8-dichloro-2-thioxo-benz[cd]indole-1(2H)-acetic acid]
91	O=C(O)CN1C(=S)c2cccc3c(Br)ccc1c23 [6-Bromo-2-thioxo-benz[cd]indole-1(2H)-acetic Acid]
91	O=C(O)CN1C(=S)c2cccc3c(I)ccc1c23 [6-iodo-2-thioxo-benz[cd]indole-1(2H)-acetic acid]

Same assay, conditions: 10^-7 molar; enzyme from bovine lens; read-out: % Inhibition at Different Molar Concentrations (in vitro)

Compound	inhibition at 0.1 µM [%]
O=C(O)CN1C(=S)c2cccc3cccc1c23 [2-thioxo-benz[cd]indole-1(2H)-acetic acid]	61
O=C(O)CN1C(=S)c2cccc3c(Br)cc(Br)c1c23 [6,8-dibromo-2-thioxo-benz[cd]indole-1(2H)-acetic acid]	13

Other lines, results leading:

inhibition at 0.1 µM [%]	Compound
14	CN(C)CCCOC(=O)CN1C(=S)c2cccc3c(Cl)ccc1c23 [6-Chloro-2-thioxo-benz[cd]indole-1(2H)-acetic Acid, 3-Dimethylamino-1propylEster]
66	O=C(O)CN1C(=S)c2cccc3c(Cl)ccc1c23 [6-chloro-2-thioxo-benz[cd]indole-1(2H)-acetic acid]
56	O=C(O)CN1C(=S)c2cccc3c(F)ccc1c23 [6-fluoro-2-thioxo-benz[cd]indole-1(2H)-acetic acid]
30	O=C(O)CN1C(=S)c2cccc3c(Cl)cc(Cl)c1c23 [6,8-dichloro-2-thioxo-benz[cd]indole-1(2H)-acetic acid]
79	O=C(O)CN1C(=S)c2cccc3c(Br)ccc1c23 [6-Bromo-2-thioxo-benz[cd]indole-1(2H)-acetic Acid]
81	O=C(O)CN1C(=S)c2cccc3c(I)ccc1c23 [6-iodo-2-thioxo-benz[cd]indole-1(2H)-acetic acid]
